# From article PMC11642940, “A New Demand for Improved Selectivity and Potency of Cyanine Dyes as Antiproliferative Agents Against Colorectal Cancer Cells” (Molecules, 2024)
# Tests used:
# Caco-2 cells [1] = test: Apoptosis (sub-G1 events) by PI staining and flow cytometry; format: cell-based, human; conditions: Caco-2, 600 mM, incubated for 24 h
# Protocol: Given that apoptosis is a common programmed mechanism regulating cell death, characterized by DNA fragmentation and an increase in sub-G1 events, we employed the method described by Riccardi and Nicolleti to assess potential apoptosis induction using flow cytometry. Cyanine dyes 5 and 10 were tested at concentrations of 1 µM and 10 µM, respectively. As positive controls for apoptosis, 600 mM sorbitol and 10 µM 5-FU were used, with untreated cells serving as the negative control. […] In contrast, dye 10 induced a slight increase in apoptosis, reaching 1.7%. […] Apoptotic bodies were more evident in cells treated with dye 5 compared to dye 10, which is further supported by the slightly higher apoptosis induction in this assay.
# Apoptosis (sub-G1 events) and cell cycle distribution were evaluated by propidium iodide (PI) staining and flow cytometry, as described by Riccardi and Nicolleti. […] Untreated cells were used as the negative control, and sorbitol and 5-FU were used as positive controls. After incubation, the supernatant was collected in a centrifuge tube, cells were washed with PBS, trypsinized and wells were once again washed with PBS. This cell suspension was maintained on ice, centrifugated at 300 g for 5 min, and then the pellet was resuspended in 0.5 mL of PBS. Cells were fixed by adding 4.5 mL of 70% ethanol cooled at −20 °C on ice and were stored at −20 °C for a period ranging from one to a few days. On the day of flow cytometry analysis, PBS was added to the fixed cell tubes, followed by centrifugation and removal of the supernatant. The pellet was resuspended in 0.5 mL of PBS and 0.5 mL of DNA extraction solution (192 mL of 0.2 M sodium phosphate and 8 mL of […], pH 7.8). After incubation for 5 min, the cells were once again centrifuged, the supernatant was removed, and the pellet was resuspended in 0.3 mL of staining solution (20 µg/mL of PI and 0.2 mg/mL of DNase-free RNase in PBS). Using a FACSCalibur flow cytometer (Becton Dickinson, Franklin Lakes, NJ, USA) with a 488 nm laser line, a minimum of 20,000 events were acquired and recorded using the BD CellQuestTM Pro 4.0.2 software, and analyzed with FlowJo 10.5.3 software. To exclude debris and necrotic cells, events with a lower diameter (forward scatter; FCS) and PI fluorescence (FL3) than the hypodiploid apoptotic cells were eliminated (Figures S1 and S2). Two independent experiments were performed. A Student’s t-test was performed to evaluate the statistical significance of the results.
# Caco-2 cells [2] = test: Caco-2 morphological analysis (optical microscopy); conditions: 24 h
# Protocol: Sorbitol and 5-FU were used as positive controls, while untreated cells served as the negative control.
# Caco-2 cells near confluency were trypsinized, counted, and then seeded at 3 × 10^4 cells/mL (3 mL) in 35 mm cell culture dishes previously treated for tissue culture. After cell adherence (48 h), they were incubated with solutions under study for 72 h in the absence of light. The cellular morphology was verified every 24 h using a CKX41 SF inverted microscope (Olympus, Tokyo, Japan) with 10, 20, or 40× objectives. A DC6 V digital camera (Olympus, Tokyo, Japan) coupled to the microscope was used to capture cell imaging. The morphology of cells in the presence or absence of treatments was compared.
structure (smiles),measurement,setting,value
"OC[C@@H](O)[C@@H](O)[C@H](O)[C@@H](O)CO [sorbitol, reference compound]","apoptosis (sub-G1 events), % of cells",Caco-2 cells [1],37.9%
same,morphological changes of Caco-2 cells,Caco-2 cells [2],marked increase in apoptotic bodies
